This passage reports Ki results from patent US8772511B2, “Azabicyclic carbamates and their use as alpha-7 nicotinic acetylcholine receptor agonists” (Bayer Intellectual Property GmbH, priority 2002, dated 2014).

One assay has as its target α7 nAChR (Rattus norvegicus (Rat), UniProt Q05941). Put plainly: Affinity for α7 nAChR by inhibition of [3H]-methyllycaconitine binding to rat brain membranes. Here is the method:
1. Determination of the Affinity of Test Substances for α7 nAChR by Inhibition of [^3H]-Methyllycaconitine Binding to Rat Brain Membranes
The [^3H]-methyllycaconitine binding assay is a modification of the method described by Davies et al. in Neuropharmacol. 1999, 38, 679-690.
Rat brain tissue (hippocampus or whole brain) is homogenized in aqueous homogenization buffer (10% w/v, 0.32 M sucrose, 1 mM EDTA, 0.1 mM phenylmethylsulfonyl fluoride (PMSF), 0.01% (w/v) NaN3, pH 7.4, 4° C.) at 600 rpm in a glass homogenizer. The homogenate is centrifuged (1000×g, 4° C., 10 min) and the supernatant is removed. The pellet is resuspended (20% w/v) and the suspension is centrifuged (1000×g, 4° C., 10 min). The two supernatants are combined and centrifuged (15 000×g, 4° C., 30 min). The pellet obtained in this way is referred to as the P2 fraction.
The P2 pellet is suspended in binding buffer (50 mM Tris-HCl, 1 mM MgCl2, 120 mM NaCl, 5 mM KCl, 2 mM CaCl2, pH 7.4), and the suspension is centrifuged (15 000×g, 4° C., 30 min), twice.
The residue is resuspended in binding buffer to a concentration of […] and incubated in a volume of 250 μl (amount of membrane protein 0.4 mg) in the presence of 2 nM [3H]-methyllyeaconitine, 0.1% (w/v) BSA (bovine serum albumin) and various concentrations of the test substance at 21° C. for 60 min.
Incubation is then carried out in the presence of 1 μM α-bungarotoxin or 100 μM nicotine or 10 μM MLA (methyllycaconitine). The incubation is stopped by adding 4 ml of PBS (20 mM Na2HPO4, 5 mM KH2PO4, 150 mM NaCl, pH 7.4, 4° C.) and filtering through type A/E glass fiber filters (Gelman Sciences) which have previously been placed in 0.3% (v/v) polyethyleneimine (PEI) for 3 h. The filters are washed twice with 4 ml of PBS (4° C.), and the bound radioactivity is determined by scintillation measurement. All the assays are carried out in triplicate. The dissociation constant Ki of the test substance was determined from the IC50 of the compounds (concentration of the test substance at which 50% of the ligand bound to the receptor is displaced), the dissociation constant KD and the concentration L of [^3H]-methyllycaconitine using the equation Ki=IC50/(1+L/KD).

Assay [1] addresses recombinant human 5-HT3 receptor (Homo sapiens (Human), UniProt P46098). Kind of assay: Affinity for 5-HT3 receptors through inhibition of [3H]GR65630 binding. Here is the method: 2. Determination of the Affinity of Test Substances for 5-HT3 Receptors Through Inhibition of [^3H]GR65630 Binding
Membranes from HEK293 cells which express recombinant human 5-HT3 receptor (RB-HS3, Receptor Biology, Inc., MD, USA) are diluted in accordance with the manufacturer's instructions in incubation buffer (50 mM Iris base, pH 7.4, 5 mM MgCl2, 0.5 mM EDTA, 0.1% (w/v) ascorbic acid, 10 μM pargyline and incubated in a volume of 200 μl (amount of membrane protein 3 μg) in the presence of 0.5 nM of the selective 5-HT3 receptor radio ligand [^3H]-GR65630 (NET 1011, Du Pont) and various concentrations of the test substance at 21° C. for 60 min. The nonspecific binding is determined by incubation in the presence of 100 μM 5-HT (5-hydroxytryptamine). The incubation is stopped by filtering through type A/E glass fiber filters (Gelman Sciences) or GF/B filters (Whatman) which have previously been placed in 0.3% (v/v) polyethyleneimine (PEI) for at least 1 h. The filters are washed three times with 3 ml of washing buffer (50 mM Tris-HCl, pH 7.4; 4° C.), and the bound radioactivity is determined by scintillation measurement. All the assays are carried out in triplicate. The dissociation constant Ki of the test substance is determined from the IC50 of the compounds (concentration of the test substance at which 50% of the ligand bound to the receptor is displaced), the dissociation constant KD and the concentration L of [^3H]GR65630 (Ki=IC50/(1+L/KD)).

Where [2] appears, read: [3H]GR65630 displacement, membranes from HEK293 cells expressing human 5-HT3 receptor, read-out: Ki.
Setting [3] is: [3H]-methyllycaconitine displacement, rat brain membranes, read-out: Ki.

Structures can show the parent of a compound that is named as a salt. Where two headings read alike, the source gives them in different places.

Chain of recombinant human 5-HT3 receptor (P46098 24-478): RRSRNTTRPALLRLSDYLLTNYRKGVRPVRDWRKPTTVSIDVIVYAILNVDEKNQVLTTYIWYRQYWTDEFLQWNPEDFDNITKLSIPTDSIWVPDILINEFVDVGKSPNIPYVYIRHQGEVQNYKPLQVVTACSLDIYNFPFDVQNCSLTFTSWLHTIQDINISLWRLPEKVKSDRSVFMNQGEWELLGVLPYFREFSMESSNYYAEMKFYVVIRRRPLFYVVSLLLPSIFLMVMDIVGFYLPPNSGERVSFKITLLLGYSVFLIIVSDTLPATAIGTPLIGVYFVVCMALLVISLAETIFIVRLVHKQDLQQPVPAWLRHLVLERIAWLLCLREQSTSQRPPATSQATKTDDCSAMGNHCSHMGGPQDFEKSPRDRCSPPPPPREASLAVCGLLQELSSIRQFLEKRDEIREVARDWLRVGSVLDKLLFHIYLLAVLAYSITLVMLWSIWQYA
Chain of α7 nAChR (Q05941 23-502 limits assumed): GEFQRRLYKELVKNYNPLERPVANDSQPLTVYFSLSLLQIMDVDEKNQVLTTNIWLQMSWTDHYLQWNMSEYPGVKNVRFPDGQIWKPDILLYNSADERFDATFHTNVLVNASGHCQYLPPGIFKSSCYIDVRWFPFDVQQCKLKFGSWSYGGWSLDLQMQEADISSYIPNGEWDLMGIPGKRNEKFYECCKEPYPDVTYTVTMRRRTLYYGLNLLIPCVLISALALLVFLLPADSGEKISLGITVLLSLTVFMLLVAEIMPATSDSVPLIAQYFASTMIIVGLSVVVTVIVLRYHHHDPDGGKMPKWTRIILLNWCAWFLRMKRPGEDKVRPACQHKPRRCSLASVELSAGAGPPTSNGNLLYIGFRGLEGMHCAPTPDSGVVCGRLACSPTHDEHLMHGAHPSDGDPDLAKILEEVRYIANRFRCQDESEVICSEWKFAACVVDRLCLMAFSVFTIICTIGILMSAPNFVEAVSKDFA

With `N#Cc1cccc(NC(=O)Nc2ccc3cc(C(=O)N[C@H]4CN5CCC4CC5)sc3c2)c1` [Example 6, N-[(3R)-1-Azabicyclo[2.2.2]oct-3-yl]-6-({[(3-cyanophenyl)amino]carbonyl}amino)-1-benzothiophene-2-carboxamide hydrochloride], the Ki turned out to be 7.9 nM on α7 nAChR and 1700 nM in assay [1] (setting [2]).

With `O=C(NCCc1ccccc1)Nc1ccc2cc(C(=O)N[C@H]3CN4CCC3CC4)sc2c1` [Example 5, N-[(3R)-1-Azabicyclo[2.2.2]oct-3-yl]-6-({[(2-phenylethyl)amino]carbonyl}amino)-1-benzothiophene-2-carboxamide hydrochloride], the Ki amounted to 22 nM on α7 nAChR (setting [3]) and 12000 nM in assay [1].

On to `COc1cccc(NC(=O)Nc2ccc3cc(C(=O)N[C@H]4CN5CCC4CC5)sc3c2)c1` [Example 16, N-[(3R)-1-Azabicyclo[2.2.2]oct-3-yl]-6-[({[3-methoxyphenyl]amino}carbonyl)-amino]-1-benzothiophene-2-carboxamide hydrochloride], for which the values for the inhibitory constant (Ki) (at α7 nAChR; in assay [1] (setting [2])) were 4.3 nM and 2100 nM, respectively.

For `O=C(Nc1ccc2cc(C(=O)N[C@H]3CN4CCC3CC4)sc2c1)Nc1c(F)cccc1F` [Example 11, N-[(3R)-1-Azabicyclo[2.2.2]oct-3-yl]-6-({[(2,6-difluorophenyl)amino]carbonyl}-amino)-1-benzothiophene-2-carboxamide hydrochloride], the Ki on α7 nAChR worked out at 0.4 nM; in assay [1] (setting [2]) it was 5500 nM.

Turning to `COc1ccc(NC(=O)Nc2ccc3cc(C(=O)N[C@H]4CN5CCC4CC5)oc3c2)cc1` [Example 22, N-[(3R)-1-Azabicyclo[2.2.2]oct-3-yl]-6-({[(4-methoxyphenyl)amino]carbonyl}-amino)-1-benzofuran-2-carboxamide hydrochloride], the Ki at α7 nAChR (setting [3]) was < 1 nM.

Consider `O=C(Nc1ccccc1)Nc1cccc2cc(C(=O)N[C@H]3CN4CCC3CC4)sc12` [Example 21, 7-[(Anilinocarbonyl)amino]-N-[(3R)-1-azabicyclo[2.2.2]oct-3-yl]-1-benzothiophene-2-carboxamide hydrochloride], for which the Ki was found to be 15 nM at α7 nAChR and 1600 nM in assay [1] (setting [2]).

Regarding `COc1ccc(NC(=O)Nc2ccc3cc(C(=O)N[C@H]4CN5CCC4CC5)sc3c2)cc1` [Example 4, N-[(3R)-1-Azabicyclo[2.2.2]oct-3-yl]-6-({[(4-methoxyphenyl)amino]carbonyl}-amino)-1-benzothiophene-2-carboxamide hydrochloride], the inhibition constant Ki at α7 nAChR (setting [3]) worked out at 2.1 nM.

In the case of `COc1cc(NC(=O)Nc2ccc3cc(C(=O)N[C@H]4CN5CCC4CC5)sc3c2)cc(OC)c1OC` [Example 14, N-[(3R)-1-Azabicyclo[2.2.2]oct-3-yl]-6-({[(3,4,5-trimethoxyphenyl)amino]-carbonyl}amino)-1-benzothiophene-2-carboxamide hydrochloride], in assay [1], the inhibition constant (Ki) came out at 6900 nM.
